Consider ten compounds from US10167285B2, “Small-molecule HSP90 inhibitors” (Memorial Sloan Kettering Cancer Center, priority 2005, dated 2019).

The test system of one test is MDA-MB-468 cells. Put plainly: Anti-mitotic assay (Tg-3 microtiter immunoassay). The note with it: 24 h, concentration dependent increase in Tg-3 luminescence. It counts as cell-based, human. As for the experimental part:
Anti-mitotic assay. Black, clear-bottom microtiter 96-well plates (Corning Costar #3603) were used to accommodate experimental cultures. MDA-MB-468 cells were seeded in each well at 8,000 cells per well in growth medium (100 μL), and allowed to attach overnight at 37° C. and 5% CO2. Growth medium (100 μL) with drug or vehicle (DMSO) was gently added to the wells, and the plates were incubated at 37° C. and 5% CO2 for 24 h. Wells were washed with ice-cold TBST (2×200 μL). A house vacuum source attached to an eight-channel aspirator was used to remove the liquid from the 96-well plates. Ice-cold methanol (100 μL) was added to each well, and the plate was placed at 4° C. for 5 min. Methanol was removed by suction and plates were washed with ice-cold TBST (2×200 μL). Plates were further incubated with SuperBlock® blocking buffer (Pierce #37535) (200 μL) for 2 h at RT. The Tg-3 antibody (gift of Dr. Davies, Albert Einstein College of Medicine) diluted 1:200 in SuperBlock® was placed in each well (100 μL) except the control column that was treated with control antibody (Mouse IgM, NeoMarkers, NC-1030-P). After 72 h, wells were washed with ice-cold TBST (2×200 μL). […] Un-reacted antibody was removed by washing the plates with ice-cold TBST (3×200 μL) for 5 min on a shaker. The ECLTM Western Blotting Detection Reagents 1 and 2 in 1:1 mix (100 μL) was placed in each well and the plates were read immediately in an Analyst AD plate reader (Molecular Devices). Luminescence readings were imported into SOFTmax PROR 4.3.1. Anti-mitotic activity was defined as a concentration dependent increase in luminescence readings in compound-treated wells as compared to DMSO only treated wells.

A further test has as its target recombinant Hsp90α (Homo sapiens (Human), UniProt P07900). Put plainly: Hsp90 competition assay (fluorescence polarization), recombinant protein. It counts as binding. Conditions: average of 3 measurements; displacement of fluorescent GM; read-out: EC50 Hsp90-α.
Test [1] has as its system SKBr3 breast cancer cells. Put plainly: Growth inhibition, sulforhodamine B assay. It counts as cell-based, human. Conditions: average of 3 measurements. The procedure: Cell culture. The human breast cancer cell lines SKBr3 and MDA-MB-468 were a gift from Dr. Neal Rosen (MSKCC). Cells were maintained in 1:1 mixture of DME:F12 supplemented with 2 mM glutamine, 50 units/mL penicillin, 50 […] and 10% heat inactivated fetal bovine serum (Gemini Bioproducts #100-10b) and incubated at 37° C., 5% CO2. Growth assays. Growth inhibition studies were performed using the sulforhodamine B assay as previously described.^29 In summary, experimental cultures were plated in microtiter plates (Nunc #167008). One column of wells was left without cells to serve as the blank control. Cells were allowed to attach overnight. The following day, growth medium having either drug or DMSO at twice the desired initial concentration was added to the plate in triplicate and was serially diluted at a 1:1 ratio in the microtiter plate. After 72 h of growth, the cell number in treated versus control wells was estimated after treatment with 50% trichloroacetic acid and staining with 0.4% sulforhodamine B in 1% acetic acid. […] Normal human renal proximal tubular epithelial (RPTEC) cells were purchased pre-seeded in 96-well plates (Clonetics, CC-3190). Upon receipt, cells were placed in a humidified incubator at 37° C., 5% CO2 and allowed to equilibrate for 3 h. Media was removed by suction and replaced with fresh media provided by the manufacturer. Cells were then treated with either drugs or DMSO for 72 h and the IC50 values were determined as described above.

Another test has as its system Her2. Kind of test: Her2 assay (microtiter immunoassay of Her2 degradation). It counts as cell-based, human. Conditions: Her2 degradation in SKBr3 cells, 24 h, average of 3 measurements. As for the experimental part:
Her2 assay. SKBr3 cells were plated in black, clear-bottom microtiter plates (Corning #3603) at 3,000 cells/well in growth medium (100 μl) and allowed to attach for 24 h at 37° C. and 5% CO2. Growth medium (100 μl) with drug or vehicle (DMSO) was carefully added to the wells, and the plates were placed at 37° C. and 5% CO2. Following 24 h incubation with drugs, wells were washed with ice-cold Tris buffer saline (TBS) containing 0.1% Tween 20 (TBST) (200 μl). A house vacuum source attached to an eight-channel aspirator was used to remove the liquid from the plates. Further, methanol (100 μl at −20° C.) was added to each well, and the plate was placed at 4° C. for 10 min. Methanol was removed by washing with TBST (2×200 μl). After further incubation at RT for 2 h with SuperBlockR (Pierce 37535) (200 μl), anti-Her-2 (c-erbB-2) antibody (Zymed Laboratories #28-004) (100 μl, 1:200 in SuperBlockR) was placed in each well. The plate was incubated overnight at 4° C. For control wells, 1:200 dilution of a normal rabbit IgG (Santa Cruz #SC-2027) in SuperblockR was used. Each well was washed with TBST (2×200 μl) and incubated at RT for 2 h with an anti-rabbit HRP-linked antibody (Sigma, A-0545) (100 μl, 1:2000 in SuperBlockR). Unreacted antibody was removed by washing with TBST (3×200 μl), and the ECLTM Western blotting reagent (Amersham #RPN2106) (100 μL) was added. The plate was immediately read in an Analyst AD plate reader (Molecular Devices). Each well was scanned for 0.1 s. Readings from wells containing only control IgG and the corresponding HRP-linked secondary antibody were set as background and deducted from all measured values.

In a further test the test system is Hsp90 lung. Put plainly: Hsp90 competition assay, lung homogenate. Conditions: for Lung/SKBr3: ratio of EC50 Hsp90 values; for EC50: read-out: EC50 Hsp90 lung, normal tissue.
The test system of the next test is Hsp90 SKBr3. Kind of test: Hsp90 competition assay, SKBr3 cell lysate. The note with it: read-out: EC50 Hsp90 SKBr3.
A further test deals with Hsp90 heart. Put plainly: Hsp90 competition assay, heart homogenate. The note with it: for Heart/SKBr3: ratio of EC50 Hsp90 values; for EC50: read-out: EC50 Hsp90 heart, normal tissue.

Structures are written as SMILES.

Experimental for Hsp90 SKBr3: Hsp90 competition assay. Fluorescence polarization measurements were performed on an Analyst AD instrument (Molecular Devices, Sunnyvale, Calif.). […] The assay buffer (HFB) contained 20 mM HEPES (K) pH 7.3, 50 mM KCl, 5 mM MgCl2, 20 mM Na2MoO4, 0.01% NP40. Before each use, 0.1 mg/mL bovine gamma globulin (BGG) (Panvera Corporation, Madison, Wis.) and 2 mM DTT (Fisher Biotech, Fair Lawn, N.J.) were freshly added. GM-BODIPY was synthesized as previously reported^23a and was dissolved in DMSO to form 10 μM solutions. Recombinant Hsp90α was purchased from Stressgen Bioreagents (cat. No. SPP-776), (Victoria, Canada). Cell lysates were prepared rupturing cellular membranes by freezing at −70° C. and dissolving the cellular extract in HFB with added protease and phosphotase inhibitors. […] Saturation curves were recorded in which GM-BODIPY (5 nM) was treated with increasing amounts of cellular lysates.
Experimental for Hsp90 heart: (§1) Hsp90 competition assay. Fluorescence polarization measurements were performed on an Analyst AD instrument (Molecular Devices, Sunnyvale, Calif.). […] The assay buffer (HFB) contained 20 mM HEPES (K) pH 7.3, 50 mM KCl, 5 mM MgCl2, 20 mM Na2MoO4, 0.01% NP40. Before each use, 0.1 mg/mL bovine gamma globulin (BGG) (Panvera Corporation, Madison, Wis.) and 2 mM DTT (Fisher Biotech, Fair Lawn, N.J.) were freshly added. […] Cell lysates were prepared rupturing cellular membranes by freezing at −70° C. and dissolving the cellular extract in HFB with added protease and phosphotase inhibitors. Organs were harvested from a healthy mouse and homogenized in HFB. Saturation curves were recorded in which GM-BODIPY (5 nM) was treated with increasing amounts of cellular lysates.
Experimental for Hsp90 lung: as §1
Experimental for recombinant Hsp90α: Hsp90 competition assay. Fluorescence polarization measurements were performed on an Analyst AD instrument (Molecular Devices, Sunnyvale, Calif.). […] The assay buffer (HFB) contained 20 mM HEPES (K) pH 7.3, 50 mM KCl, 5 mM MgCl2, 20 mM Na2MoO4, 0.01% NP40. Before each use, 0.1 mg/mL bovine gamma globulin (BGG) (Panvera Corporation, Madison, Wis.) and 2 mM DTT (Fisher Biotech, Fair Lawn, N.J.) were freshly added. GM-BODIPY was synthesized as previously reported^23a and was dissolved in DMSO to form 10 μM solutions.

As for `C#CCCCn1c(Cc2cc3c(cc2I)OCO3)nc2c(N)nc(F)nc21` [Example 11, 2-Fluoro-8-(6-iodo-benzo[1,3]dioxol-5-ylmethyl)-9-(pent-4-ynyl)adenine], the Anti-mitotic entry in the test on MDA-MB-468 cells is “Yes”. Besides, the EC50 (commonly the concentration giving half of the maximal effect) on recombinant Hsp90α was 0.0223 ± 0.002 µM. Besides, the IC50 (in general, the concentration that gives 50% inhibition) in test [1] (Homo sapiens, SK-BR-3, 72 h) came to 0.09 ± 0.03 µM; in the test with Her2 (Homo sapiens, SK-BR-3), 0.09 ± 0.01 µM.

On to `C#CCCCn1c(Cc2cc3c(cc2Cl)OCO3)nc2c(N)nc(F)nc21` [Example 7, 2-Fluoro-8-(6-chloro-benzo[1,3]dioxol-5-ylmethyl)-9-(pent-4-ynyl)adenine], for which, in the test on MDA-MB-468 cells, the Anti-mitotic entry was “Yes”. For the same compound, the EC50 at recombinant Hsp90α worked out at 0.0772 ± 0.001 µM. The IC50 was 0.25 ± 0.03 µM in test [1] (Homo sapiens, SK-BR-3, 72 h) and 0.3 ± 0.015 µM in the test on Her2 (Homo sapiens, SK-BR-3).

`C#CCCCn1c(Cc2cc(OC)c(OC)cc2Cl)nc2c(N)nc(F)nc21` [Example 14, 2-Fluoro-8-(2-chloro-4,5-dimethoxy-benzyl)-9-(pent-4-ynyl)adenine]: the Anti-mitotic entry with MDA-MB-468 cells was “No”. The EC50 on recombinant Hsp90α turned out to be 4.6 ± 0.02 µM. For the same compound, the IC50 worked out at 20.6 ± 6.7 µM in test [1] (Homo sapiens, SK-BR-3, 72 h) and 30 ± 1 µM in the test with Her2 (Homo sapiens, SK-BR-3).

`C#CCCCn1c(Cc2cc(OC)c(OC)cc2Br)nc2c(N)nc(F)nc21` [Example 13, 2-Fluoro-8-(2-bromo-4,5-dimethoxy-benzyl)-9-(pent-4-ynyl)adenine]: the Anti-mitotic entry in the test with MDA-MB-468 cells was “No”. For the same compound, the EC50 at recombinant Hsp90α is > 15 µM. For the same compound, the IC50 in test [1] (Homo sapiens, SK-BR-3, 72 h) is 55 ± 2.3 µM; with Her2 (Homo sapiens, SK-BR-3), > 50 µM.

For `COc1cc(Sc2nc3c(N)ncnc3n2CCOC(C)C)c(Cl)cc1Cl` [Example 3, 9-(2-Isopropoxy-ethyl)-8-(2,4-dichloro-5-methoxy-benzenesulfanyl)adenine], in the test with MDA-MB-468 cells, the Anti-mitotic entry was “No”. Also, the EC50 at recombinant Hsp90α was determined as 5 ± 1.1 µM. Also, the IC50 came out at 16.1 ± 0.7 µM in test [1] (72 h) and 58.3 ± 2.2 µM in the test with Her2.

On to `C#CCCCn1c(Sc2cc3c(cc2I)OCO3)nc2c(N)ncnc21` [Example 10, 8-(6-Iodo-benzo[1,3]dioxol-5-ylsulfanyl)-9-(pent-4-ynyl)adenine], for which, in the test on Hsp90 lung, the Lung/SKBr3 was 136. The EC50 with Hsp90 lung was 2.2 ± 0.4 µM; with Hsp90 SKBr3, 0.0161 ± 0.001 µM; in the test on Hsp90 heart it was 6 ± 0.2 µM. Further, the Anti-mitotic result in the test on MDA-MB-468 cells is “Yes”. Moreover, the IC50 was determined as 0.09 ± 0.002 µM in test [1] (Homo sapiens, SK-BR-3, 72 h) and 0.1 ± 0.01 µM in the test with Her2 (Homo sapiens, SK-BR-3). For the same compound, the Heart/SKBr3 in the test on Hsp90 heart came out at 370.

Turning to `C#CCCCn1c(Cc2cc(OC)c(OC)cc2I)nc2c(N)nc(F)nc21` [Example 12, 2-Fluoro-8-(2-iodo-4,5-dimethoxy-benzyl)-9-(pent-4-ynyl)adenine], in the test on MDA-MB-468 cells, the Anti-mitotic result is “No”. Also, the EC50 at recombinant Hsp90α is > 15 µM. For the same compound, the IC50 is > 50 µM in test [1] (Homo sapiens, SK-BR-3, 72 h) and > 50 µM with Her2 (Homo sapiens, SK-BR-3).

As for `Nc1ncnc2nc(Sc3cc(Cl)c(Cl)cc3Cl)[nH]c12` [Example 4, 8-(2,4,5-Trichloro-phenylsulfanyl)adenine], the Anti-mitotic result with MDA-MB-468 cells is on record as “Yes”. The EC50 at recombinant Hsp90α stood at 15.4 ± 2.2 µM. In addition, the IC50 in test [1] (Homo sapiens, SK-BR-3, 72 h) amounted to 36 ± 0.2 µM; with Her2 (Homo sapiens, SK-BR-3), 47.8 ± 3.2 µM.

As to `C#CCCCn1c(Sc2cc(Cl)c(Cl)cc2Cl)nc2c(N)ncnc21` [Example 2, 9-(Pent-4-ynyl)-8-(2,4,5-trichloro-phenylsulfanyl)adenine], the Anti-mitotic entry with MDA-MB-468 cells is on record as “No”. In addition, on recombinant Hsp90α, the EC50 worked out at 8.5 ± 0.1 µM. The IC50 came to 48.4 ± 2.5 µM in test [1] (Homo sapiens, SK-BR-3, 72 h) and 58 ± 1.4 µM in the test with Her2 (Homo sapiens, SK-BR-3).

`C#CCCCn1c(Cc2cc3c(cc2Br)OCO3)nc2c(N)nc(F)nc21` [Example 6, 2-Fluoro-8-(6-bromo-benzo[1,3]dioxol-5-ylmethyl)-9-(pent-4-ynyl)adenine]: in the test on Hsp90 lung, the Lung/SKBr3 came to 134. Further, the EC50 in the test on Hsp90 lung was found to be 5.2 ± 0.21 µM; on recombinant Hsp90α it was 0.0565 ± 0.002 µM; with Hsp90 SKBr3, 0.0388 ± 0.003 µM; in the test with Hsp90 heart, 13.3 ± 0.21 µM. Moreover, the Anti-mitotic entry with MDA-MB-468 cells is recorded as “Yes”. In addition, the half-maximal inhibitory concentration (IC50) is 0.215 ± 0.055 µM in test [1] (Homo sapiens, SK-BR-3, 72 h) and 0.21 ± 0.01 µM with Her2 (Homo sapiens, SK-BR-3). Moreover, in the test on Hsp90 heart, the Heart/SKBr3 is 343.
